Results as given in patent US7994326B2 (Northwestern University, priority 2003, dated 2011).
Read-outs that look alike come from different tables or passages of the source.

Key:
Type in all cases: biochemical
[1] = target: T1, rat nNOS (Rattus norvegicus, UniProt P29476); test: NOS enzyme inhibitory assay (hemoglobin capture), nNOS; details: Table 1a; for Selectivity n/e: Ki(eNOS)/Ki(nNOS); for Selectivity n/i: Ki(iNOS)/Ki(nNOS); for Ki: apparent Ki calculated from IC50, Km […], read-out: calc. Ki nNOS; for IC50: rat nNOS, 10 μM L-arginine
T1 construct: made in house; host or cells: E. coli (plasmid pCWnNOS)
Description: (§1) All of the NOS isoforms used were recombinant enzymes overexpressed in E. coli from different sources. Nitric oxide formation from NOS was monitored by the hemoglobin capture assay as described in the literature.
After approximately 48 h of post-induction incubation in the dark at 25° C. the cells were pelleted at 5300×g, transferred to 50 mL conical tubes, and stored at −80° C.
nNOS purification: Cell pellets from 2.0 L of culture were resuspended in sonication Buffer A (50 mM Tris Base Buffer, pH 8.0, 10% glycerol), 2 mg/ml lysozyme. 0.5 mM L-arginine. 1 mM EDTA, 0.1 mM PMSF, 1 µg/ml antipain, and 1 μM each of leupeptin, […], and […]) and lysed by sonication. Centrifugation for 1 h at 100000×g yielded supernatant which contained nNOS active enzyme. The supernatant was brought to 2 mM CaCl2 and the protein was loaded onto a 15 ml calmodulin-Sepharose column equilibrated with Buffer A containing 2 mM CaCl2. The column was washed with 100 ml Buffer B (50 mM Hepes, 5 mM DTT, and […]) containing 2 mM CaCl2, 0.5 mM L-arginine, and 10 μM BH4, and eluted with 30 ml Buffer B supplemented with 0.3 M NaCl, 5 mM EGTA, 0.5 mM L-arginine, and 10 μM BH4. The protein was then loaded onto a 5 ml 2′,5′-ADP-Sepharose column equilibrated with Buffer B supplemented with 0.3 M NaCl, 0.5 mM L-arginine, and 10 μM BH4. The column was washed with 25 ml Buffer B containing 0.5 mM L-arginine and 10 μM BH4, and then 25 ml of Buffer B only supplemented with 10 μM BH4 (without L-arginine). Neuronal NOS was eluted with 20 ml Buffer B supplemented with 10 mM 2′(3′)-AMP, 10 μM BH4 and 0.3 M NaCl. The 20 ml eluent was then concentrated to 5 ml by ultrafiltration. The above concentration operation was repeated twice more with 10 ml Buffer B supplemented with 10 µM BH4 to give the purified neuronal NOS.
Nitric oxide formation from NOS was monitored by the hemoglobin capture assay as described previously.
(§2) The selectivity of an inhibitor is defined as the ratio of the respective Ki values.

[2] = target: T2, bovine eNOS (Bos taurus, UniProt P29473); test: NOS enzyme inhibitory assay (hemoglobin capture), eNOS; details: for IC50: bovine eNOS, 10 μM L-arginine, * = no inhibition observed up to the concentration listed
T2 construct: made in house; host or cells: E. coli (plasmid Bov-eNOSpCW)
Description: as §1
Expression of bovine eNOS: An overnight culture of Bov-eNOSpCW was used to inoculate 0.5 liter (in a 2.8-liter Fernbach flask) of modified TB (20 g of yeast extract, 10 g of bacto-tryptone, 2.65 g of KH2PO4, 4.33 g of Na2HPO4 and 4 ml of glycerol per liter) containing ampicillin ([…]) and chloramphenicol ([…]). The cultures were grown to an OD600 of z0.8 at 22° C. (200 rpm) and induced with 0.5 mM IPTG. One hour before IPTG induction, d-aminolevulinic acid (0.5 mM final) was added and, at the time of IPTG induction, riboflavin ([…]) and ATP (1 mM final) were also added. After induction, the flasks were kept in the dark at 22° C. (200 rpm). The cells were harvested 48 h after induction, and the cell pellet was frozen at −80° C. until purification was carried out.
Purification of bovine eNOS. The purification was typically carried out with eNOS from 2 liters of E. coli culture. The eNOS protein was purified using a modification of the published protocol for nNOS (14). The cells were resuspended in buffer C [50 mM Tris-Cl, pH 7.8, 1 mM EDTA, 1 mM DTT, 10% glycerol (v/v), 150 mM NaCl, 0.1 mM phenylmethylsulfonyl fluoride, […]], lysed by pulsed sonication and then centrifuged to sediment the cell debris. The supernatant was applied to a 2′,5′-ADP Sepharose 4B column equilibrated in buffer D [50 mM Tris-Cl, pH 7.8, 0.1 mM EDTA, 0.1 mM dithiothreitol, 150 mM NaCl, 10% glycerol (v/v)]. The column was washed with 20 column volumes of buffer B and again with 20 column volumes of buffer B containing 600 mM NaCl. Finally, protein was eluted with buffer B containing 600 mM NaCl and 5 mM 2′-AMP. The fractions were screened for absorption in the Soret region (A400) and hemoprotein-containing fractions were pooled and concentrated (Centriprep 50, Amicon). Repeated dilution/concentration [50 mM Tris-Cl, pH 7.8, 0.1 mM EDTA, 0.1 mM dithiothreitol, 10% glycerol (vol/vol)] was used to reach a final concentration of 150 mM NaCl and commensurately reduce the 2′-AMP content. […] The purified eNOS is stored in the presence of 1 mM L-arginine.
eNOS washing: eNOS contains a significant amount of L-arginine, which will interfere with the enzyme assay. The L-arginine can be removed by several dilution and concentration steps using an Amico concentrator. The dilution buffer is 10 ml Tris-HCl 50 mM containing 0.1 mM EDTA, 400 mM NaCl, 10% glycerol and 1 mM beta-mercaptoethanol. The above dilution and concentration operation was repeated three times to give purified eNOS.
(§3) Nitric oxide formation from NOS was monitored by the hemoglobin capture assay as described previously. (Hevel, J. M.; Marletta, M. A. Nitric Oxide Synthase Assays. Methods Enzymol. 1994, […], 250-258).
as §2

[3] = target: T3, murine iNOS (Mus musculus, UniProt P29477); test: NOS enzyme inhibitory assay (hemoglobin capture), iNOS; details: for IC50: murine iNOS, 10 μM L-arginine
T3 construct: made in house; host or cells: E. coli (plasmid pCWiNOS)
Source text: as §1
Enzyme inhibitory assay. All of the NOS isoforms used are recombinant enzymes overexpressed in E. coli from different sources.
iNOS expression: An overnight culture of pCWiNOS was used to inoculate (1:100) larger cultures of Terrific Broth media (12 g/L tryptone, 24 g/L yeast extract, 4 mL/L glycerol, 17 mM KH2PO4, and 72 mM K2HPO4) containing 50 μg/mL ampicillin and 34 μg/mL chloramphenicol at 37° C. At an OD600 of ˜0.5, the culture was cooled to 25° C. and induced by the addition of 1 mM IPTG (final concentration). After approximately 24 h of growth at 25° C., the cells were pelleted at 5300×g, transferred to 50 mL conical tubes, and stored at −80° C.
iNOS purification: Cell pellets from 1.0 L of culture were resuspended in sonication buffer (50 mM Hepes, pH 7.4, 10% glycerol, 10 μg/mL benzamidine, 5 μg/mL leupeptin, 0.2 mM of PMSF, and 1 μg/mL each of pepstatin, chymostatin, and antipain) and lysed by sonication. Centrifugation for 20 min at 13000×g yielded supernatant which contained iNOS active enzyme. iNOS supernatant was loaded onto 1 g of a 2′,5′-ADP-Sepharose 4B resin column. The column was then washed with 20 ml iNOS purification buffer (10 mM K2HPO4, 10% glycerol, 0.5 mM L-arginine, pH 7.4) and 10 μM BH4. Inducible NOS was eluted with 30 ml iNOS purification buffer supplemented with 10 mM 2′(3′)-AMP, 10 μM BH4, and 0.3 M NaCl. The eluent was concentrated to 5 ml by ultrafiltration. The above concentration operation was repeated three times more with 10 ml Hepes buffer supplemented with 10 μM BH4, to give purified inducible NOS.
as §3, §2

[4] = Table 1a, apparent Ki calculated from IC50, Km 1.7 μM, read-out: calc. Ki eNOS
[5] = Table 1a, apparent Ki calculated from IC50, Km […], read-out: calc. Ki iNOS

| SMILES | Selectivity n/e [1] | Selectivity n/i [1] | Ki [1] | IC50 [1] | Ki [2, 4] | IC50 ([2]; Table 1a) | Ki [3, 5] | IC50 ([3]; Table 1a) | Ki ([2]; Table 1b, read-out: Ki eNOS) | Ki ([3]; Table 1b, read-out: Ki iNOS) |
| --- | --- | --- | --- | --- | --- | --- | --- | --- | --- | --- |
| Cl.Cl.Nc1cccc(CC2CNCC2O)n1 (racemic) [Compound P-11] | 49.11 | 3.64 | 6.94 µM | 60.3 µM | 341 µM | 2350 µM | 25.2 µM | 56 µM |  |  |
| Cl.Cl.Cl.Nc1cccc(CC2CNCC2NCCCc2ccccc2)n1 (racemic) [Compound P-12] | 6.42 | 10.83 | 13.3 µM | 115 µM | 85.2 µM | 586 µM | 144 µM | 317 µM |  |  |
| CN(C)CCNC1CNCC1Cc1cccc(N)n1 (racemic) [Compound P-15] | 15.41 | 19.65 | 15.7 µM | 136 µM | 242 µM | 1660 µM | 308 µM | 679 µM |  |  |
| Nc1cccc(CC2CNCC2NCC(N)Cc2ccccc2)n1 (racemic) [Compound P-16] | >104.83 | 21.54 | 13.9 µM | 120 µM | > 1450 µM | > 10000 µM | 299 µM | 658 µM |  |  |
| Nc1cccc(CC2CNCC2NCC(N)Cc2ccccc2)n1 (racemic) [Compound P-17] | >70.64 | 20.25 | 20.6 µM | 179 µM | > 1450 µM | > 10000 µM | 417 µM | 919 µM |  |  |
| Nc1cccc(C[C@H]2CNC[C@@H]2NCCNCc2ccccc2)n1 (racemic) [Compound P-18] | >703.88 | 11.49 | 14.5 µM | 126 µM |  | > 70000 µM | 166 µM | 366 µM |  |  |
| Nc1cccc(CC2CNCC2NC2CCNC2)n1 (racemic) [Compound P-19] | 22.00 | 12.11 | 20.9 µM | 182 µM | 460 µM | 3170 µM | 253 µM | 559 µM |  |  |
| Nc1cccc(CC2CNCC2NC2CCNC2)n1 (racemic) [Compound P-20] | 48.67 | 18.21 | 12.8 µM | 112 µM | 625 µM | 4300 µM | 234 µM | 516 µM |  |  |
| Nc1cccc(CC2CNCC2NC2CCN(Cc3ccccc3)C2)n1 (racemic) [Compound P-21] | 6.99 | 11.70 | 24.4 µM | 212 µM | 171 µM | 1170 µM | 286 µM | 630 µM |  |  |
| Nc1cccc(CC2CNCC2NC2CCN(Cc3ccccc3)C2)n1 (racemic) [Compound P-22] | 6.07 | 11.66 | 17.9 µM | 156 µM | 109 µM | 748 µM | 209 µM | 461 µM |  |  |
| Cl.Cl.Cl.Nc1cccc(C[C@H]2CNC[C@H]2NCCCc2ccccc2)n1 (racemic) [Compound P-27] | 27.9 | 52.43 | 3.17 µM | 27.5 µM | 88.5 µM | 609 µM | 166 µM | 366 µM |  |  |
| CN(C)CCNC1CNCC1Cc1cccc(N)n1 (racemic) [Compound P-30] | 42.02 | 58.45 | 3.33 µM | 29 µM | 140 µM | 963 µM | 195 µM | 429 µM |  |  |
| Nc1cccc(CC2CNCC2NCC(N)Cc2ccccc2)n1 (racemic) [Compound P-31] | >600 | 98.27 | 2.42 µM | 21 µM | > 1450 µM | > 10000 µM | 238 µM | 524 µM |  |  |
| Cc1cc(N)nc(CC2CNCC2N(C)CCNCc2ccc(Cl)cc2)c1 (racemic) [Compound P-64] |  |  |  |  |  |  |  |  | 125 µM |  |
| Cc1cc(N)nc(C[C@H]2CNC[C@@H]2N(C)CCNCc2ccc(Cl)cc2)c1 (racemic) [Compound P-69] |  |  |  |  |  |  |  |  | 58.1 µM |  |
| Cc1cc(N)nc(C[C@H]2CNC[C@H]2OCC(=O)NCCc2cccc(F)c2)c1 (racemic) [Compound P-79, (±)-2-{cis-4-[(6-amino-4-methylpyridin-2-yl)methyl]pyrrolidin-3-yloxy}-N-(3-fluorophenethyl)acetamide] |  |  |  |  |  |  |  |  | 125 µM | 13 µM |
